The text below walks through data of publication PMC5436585 (ACS chemical biology, 2016).

Molecules are shown by their SMILES.

The target of the experiment is T1, SltB3 (Pseudomonas aeruginosa, UniProt Q9HX28).
T1 sequence (Q9HX28 33-448): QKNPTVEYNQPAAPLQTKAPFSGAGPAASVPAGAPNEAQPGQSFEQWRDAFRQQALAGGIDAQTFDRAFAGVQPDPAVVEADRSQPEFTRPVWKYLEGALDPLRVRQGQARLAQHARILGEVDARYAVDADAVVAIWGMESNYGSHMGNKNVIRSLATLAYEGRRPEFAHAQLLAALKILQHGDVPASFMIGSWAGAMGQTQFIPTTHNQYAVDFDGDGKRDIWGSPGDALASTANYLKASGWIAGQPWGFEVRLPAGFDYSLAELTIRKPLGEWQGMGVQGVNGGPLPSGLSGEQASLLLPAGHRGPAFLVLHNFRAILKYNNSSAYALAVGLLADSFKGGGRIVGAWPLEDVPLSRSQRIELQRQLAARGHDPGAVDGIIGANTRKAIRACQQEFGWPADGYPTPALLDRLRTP
Briefly: LC/MS product quantification, nonlinear regression. Type of experiment: biochemical. The conditions noted are these: 20 mM HEPES, 0.1 M NaCl, 0.1% Triton X, pH 7.0, 25 °C; 8 nM enzyme.

Turning to `CO[C@@H]1O[C@H](CO)[C@@H](O[C@@H]2O[C@H](CO)[C@@H](O[C@@H]3O[C@H](CO)[C@@H](O[C@@H]4O[C@H](CO)[C@@H](O)[C@H](O)[C@H]4NC(C)=O)[C@H](O[C@H](C)C(=O)N[C@@H](C)C(=O)N[C@H](CCC(=O)N[C@@H](CCC[C@@H](N)C(=O)O)C(=O)N[C@H](C)C(=O)N[C@H](C)C(=O)O)C(=O)O)[C@H]3NC(C)=O)[C@H](O)[C@H]2NC(C)=O)[C@H](O[C@H](C)C(=O)N[C@@H](C)C(=O)N[C@H](CCC(=O)N[C@@H](CCC[C@@H](N)C(=O)O)C(=O)N[C@H](C)C(=O)N[C@H](C)C(=O)O)C(=O)O)[C@H]1NC(C)=O` [compound 1], the Michaelis-Menten constant (Km) amounted to 200 ± 20 µM.

Usually Km stands for the concentration of substrate that gives half-maximal velocity.
